# Measured values published in US8183201B2 (priority 2006, dated 2012).
# Like-named read-outs stand apart in the source and are kept apart here.
# Experiments:
# [1] = tested on: ovariectomized (OVX) rats; details: rat, in vivo, po, 1.5 mg/kg
# [2] = tested on: osteoclast precursors (bone marrow hematopoietic cells); type: cell-based, SD rats; details: read-out: IC50 Osteoclastogenesis
# [3] = tested on: ovariectomized (OVX) mice; parameters: species or system ICR mice; details: mouse, in vivo, po, 1.5 mg/kg
# [4] = target: platelet aggregation (Homo sapiens, UniProt P05106+P08514); type: cell-based
# [5] = target: T1, integrin αIIbβ3 (Homo sapiens, UniProt P05106+P08514); type: cell-based
# T1 construct: host or cells: CHO (CHO-αIIbβ3)
# [6] = target: T2, integrin α5β1 (Homo sapiens, UniProt P05556+P08648); type: cell-based
# T2 construct: Human erythroleukemia K562 cells were purchased from ATCC; host or cells: K562
# T2 sequence (P08648 42-894 limits assumed): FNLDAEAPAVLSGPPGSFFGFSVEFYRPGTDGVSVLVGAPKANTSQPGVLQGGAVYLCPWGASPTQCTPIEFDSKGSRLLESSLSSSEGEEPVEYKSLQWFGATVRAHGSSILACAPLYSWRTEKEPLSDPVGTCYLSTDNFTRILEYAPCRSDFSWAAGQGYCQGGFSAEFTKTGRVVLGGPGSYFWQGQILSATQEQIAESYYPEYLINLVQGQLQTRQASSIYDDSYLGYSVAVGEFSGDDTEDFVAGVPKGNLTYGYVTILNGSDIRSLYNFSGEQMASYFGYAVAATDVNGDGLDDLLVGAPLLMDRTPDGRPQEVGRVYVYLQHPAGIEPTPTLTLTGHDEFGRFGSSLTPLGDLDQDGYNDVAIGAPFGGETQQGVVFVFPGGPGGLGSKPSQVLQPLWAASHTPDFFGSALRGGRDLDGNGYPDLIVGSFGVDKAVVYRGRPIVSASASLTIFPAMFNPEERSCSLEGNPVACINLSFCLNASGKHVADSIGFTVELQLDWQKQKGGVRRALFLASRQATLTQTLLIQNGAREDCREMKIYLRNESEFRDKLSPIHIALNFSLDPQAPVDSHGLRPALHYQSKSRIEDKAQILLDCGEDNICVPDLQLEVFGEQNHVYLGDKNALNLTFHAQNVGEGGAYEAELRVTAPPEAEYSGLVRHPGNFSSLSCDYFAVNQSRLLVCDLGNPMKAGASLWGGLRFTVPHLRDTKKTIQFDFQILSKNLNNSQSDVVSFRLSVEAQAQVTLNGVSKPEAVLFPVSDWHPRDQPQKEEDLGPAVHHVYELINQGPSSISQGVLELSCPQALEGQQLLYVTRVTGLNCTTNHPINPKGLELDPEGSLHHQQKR
# T2 sequence (P08648 895-1049 partner limits assumed): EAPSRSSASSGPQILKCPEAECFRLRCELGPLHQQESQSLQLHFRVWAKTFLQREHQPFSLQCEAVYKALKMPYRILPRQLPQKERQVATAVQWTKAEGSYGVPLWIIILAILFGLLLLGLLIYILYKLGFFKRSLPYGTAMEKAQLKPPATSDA
# T2 sequence (P05556 21-798): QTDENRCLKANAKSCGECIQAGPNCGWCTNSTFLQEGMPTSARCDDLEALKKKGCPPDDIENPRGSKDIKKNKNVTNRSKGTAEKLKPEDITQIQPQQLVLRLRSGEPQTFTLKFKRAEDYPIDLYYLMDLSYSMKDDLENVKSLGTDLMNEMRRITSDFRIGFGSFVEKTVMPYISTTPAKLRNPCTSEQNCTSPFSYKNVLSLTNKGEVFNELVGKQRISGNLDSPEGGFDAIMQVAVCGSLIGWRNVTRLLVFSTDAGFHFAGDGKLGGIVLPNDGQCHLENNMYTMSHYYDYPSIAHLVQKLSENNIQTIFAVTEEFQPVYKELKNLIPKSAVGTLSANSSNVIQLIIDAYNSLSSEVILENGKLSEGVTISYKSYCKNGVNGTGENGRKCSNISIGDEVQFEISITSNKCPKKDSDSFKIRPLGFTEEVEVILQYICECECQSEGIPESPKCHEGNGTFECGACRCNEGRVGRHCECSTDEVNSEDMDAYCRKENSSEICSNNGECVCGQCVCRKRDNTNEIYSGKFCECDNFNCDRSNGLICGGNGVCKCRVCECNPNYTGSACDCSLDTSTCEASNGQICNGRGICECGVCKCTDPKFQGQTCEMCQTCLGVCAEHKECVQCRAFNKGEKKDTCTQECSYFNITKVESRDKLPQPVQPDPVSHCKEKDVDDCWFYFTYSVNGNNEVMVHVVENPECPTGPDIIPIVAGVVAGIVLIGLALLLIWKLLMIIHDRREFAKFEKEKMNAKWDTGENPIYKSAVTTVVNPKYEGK
# [7] = target: integrin αvβ3 (UniProt P05106+P06756); type: cell-based
# integrin αvβ3, sequence (P06756 31-1048): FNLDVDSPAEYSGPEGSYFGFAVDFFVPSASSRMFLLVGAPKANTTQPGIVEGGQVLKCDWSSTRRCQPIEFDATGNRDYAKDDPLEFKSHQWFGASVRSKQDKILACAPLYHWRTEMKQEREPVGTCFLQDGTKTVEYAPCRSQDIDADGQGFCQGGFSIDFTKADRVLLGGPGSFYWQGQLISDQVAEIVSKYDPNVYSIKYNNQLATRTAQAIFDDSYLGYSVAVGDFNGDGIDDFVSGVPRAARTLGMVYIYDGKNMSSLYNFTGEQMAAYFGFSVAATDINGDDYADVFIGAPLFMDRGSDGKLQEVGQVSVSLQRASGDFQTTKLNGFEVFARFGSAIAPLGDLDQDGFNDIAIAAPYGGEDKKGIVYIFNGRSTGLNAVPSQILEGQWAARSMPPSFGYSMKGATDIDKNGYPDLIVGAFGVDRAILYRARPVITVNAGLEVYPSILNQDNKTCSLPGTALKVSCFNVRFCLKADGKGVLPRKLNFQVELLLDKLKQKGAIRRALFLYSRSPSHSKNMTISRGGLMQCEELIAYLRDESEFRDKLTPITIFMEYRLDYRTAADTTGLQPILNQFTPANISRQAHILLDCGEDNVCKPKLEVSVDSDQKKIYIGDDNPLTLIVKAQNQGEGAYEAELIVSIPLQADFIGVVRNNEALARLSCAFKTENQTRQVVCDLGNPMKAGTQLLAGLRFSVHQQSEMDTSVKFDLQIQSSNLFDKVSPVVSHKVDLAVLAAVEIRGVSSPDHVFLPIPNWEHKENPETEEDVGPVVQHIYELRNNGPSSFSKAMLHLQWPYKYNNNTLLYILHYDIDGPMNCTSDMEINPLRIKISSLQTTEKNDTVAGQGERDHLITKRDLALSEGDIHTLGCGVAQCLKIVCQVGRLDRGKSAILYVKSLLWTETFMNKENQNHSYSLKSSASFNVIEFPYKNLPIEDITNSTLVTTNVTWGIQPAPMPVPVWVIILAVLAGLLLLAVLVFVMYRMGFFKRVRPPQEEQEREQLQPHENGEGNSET
# integrin αvβ3, sequence (P05106 27-788): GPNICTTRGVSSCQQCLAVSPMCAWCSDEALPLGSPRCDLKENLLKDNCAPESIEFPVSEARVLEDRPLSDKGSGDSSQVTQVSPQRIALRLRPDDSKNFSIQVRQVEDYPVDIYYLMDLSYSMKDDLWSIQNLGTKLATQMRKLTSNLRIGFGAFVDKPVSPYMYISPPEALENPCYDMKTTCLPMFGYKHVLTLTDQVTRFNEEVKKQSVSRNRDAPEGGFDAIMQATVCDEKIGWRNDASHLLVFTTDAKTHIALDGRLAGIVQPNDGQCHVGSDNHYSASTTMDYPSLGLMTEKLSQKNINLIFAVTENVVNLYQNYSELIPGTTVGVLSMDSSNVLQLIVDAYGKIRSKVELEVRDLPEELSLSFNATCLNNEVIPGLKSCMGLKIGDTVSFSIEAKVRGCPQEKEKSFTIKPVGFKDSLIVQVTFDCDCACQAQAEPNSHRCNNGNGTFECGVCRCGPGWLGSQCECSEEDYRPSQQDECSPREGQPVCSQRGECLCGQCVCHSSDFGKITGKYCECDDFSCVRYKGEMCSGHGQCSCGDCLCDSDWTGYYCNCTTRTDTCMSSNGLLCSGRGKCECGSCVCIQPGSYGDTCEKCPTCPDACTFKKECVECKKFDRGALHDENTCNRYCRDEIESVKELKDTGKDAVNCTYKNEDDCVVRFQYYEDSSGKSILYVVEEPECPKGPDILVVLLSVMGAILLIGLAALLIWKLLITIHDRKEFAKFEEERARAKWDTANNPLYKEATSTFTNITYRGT
# [8] = mouse, in vivo
Molecule,IC50 [2] [nM],BMC [3] [g],BMD [3] [g/cm^2],C-terminal telopeptide of COL(1)α1 chain [3] [ng/mL],other results
"NCCCC(O)(P(=O)(O)O)P(=O)(O)O [Alendronate, alendronate, reference compound]",–,–,–,–,ovariectomy-induced increase in osteoclast activity (serum C-terminal telopeptide of type-I collagen) [1]: reversed the ovariectomy-induced increase in osteoclast activity
"ARGDDL: rhodostomin variant with RGD motif ^48Ala-Arg-Gly-Asp-Asp-Leu^53, SEQ ID NO: 32",8.02,0.624 ± 0.007,0.093 ± 0.001,389 ± 16.4,–
"PGP: rhodostomin variant having a RGD motif variant ^48PRGDGP^53, SEQ ID NO: 42",–,–,–,–,IC50 [4]: 283 nM; IC50 ([5]; read-out: IC50 αIIbβ3): 500 nM; IC50 ([5]; read-out: IC50 αllbβ3/Fg): 2590 nM; IC50 ([6]; read-out: IC50 α5β1): 4000 nM; IC50 ([6]; read-out: IC50 α5β1/Fn): 3460 nM
"PRGDDL: rhodostomin variant with RGD motif ^48Pro-Arg-Gly-Asp-Asp-Leu^53, SEQ ID NO: 33",3.15,–,–,–,–
"PRLDDL: rhodostomin variant with RGD motif ^48Pro-Arg-Leu-Asp-Asp-Leu^53, SEQ ID NO: 37",–,0.563 ± 0.056,0.091 ± 0.002,410 ± 25.1,–
"RID: rhodostomin variant with RGD motif ^48Pro-Arg-Ile-Asp-Met-Pro^53, SEQ ID NO: 39",5.82,0.622 ± 0.004,0.091 ± 0.001,391 ± 12,–
rhodostomin [reference compound],5.52,0.619 ± 0.006,0.090 ± 0.001,397 ± 13.6,IC50 [4]: 83 nM; IC50 ([5]; read-out: IC50 αIIbβ3): 21 nM; IC50 ([5]; read-out: IC50 αllbβ3/Fg): 21 nM; IC50 ([7]; read-out: IC50 αvβ3): 13 nM; IC50 ([7]; read-out: IC50 αvβ3/Fg): 13 nM; effect on tail bleeding (clotting) time [8]: pronounced effect in prolonging the clotting time
